Source: patent publication US10377991B2, “Method of producing airway epithelial cells” (KYOTO UNIVERSITY, priority 2015, dated 2019)

Tested on: proximal airway epithelial progenitor cells induced from human iPS cells (201B7)
Assay: Induction of differentiation into ciliated airway epithelial cells in Step 6 three-dimensional culture, qRT-PCR of FOXJ1, DNAHS and SNTN
Type: cell-based
Conditions: 10 μM DAPT in medium for Step 6 from Day 42, read on Day 56; versus Step 6 medium without DAPT
Protocol: On Day 42 (i.e., upon completion of Step 5), the medium in the lower layer of Cell Culture Inserts (Corning) was exchanged with the medium for Step 6, and the medium of the lower layer was selectively exchanged with another medium every other day.
The medium for Step 6 was prepared by supplementing the Pneumacult-ALI Maintenance Medium (STEMCELL Technologies) with 10 μM Y-27632.
On Day 6 (i.e., upon completion of Step 1), Day 14 (i.e., upon completion of Step 3), Day 28 (i.e., upon completion of Step 4), Day 42 (i.e., upon completion of Step 5), and Day 56 (i.e., upon completion of Step 6), expression levels of FOXJ1, DNAHS, and SNTN as marker genes specific to ciliated airway epithelial cells were analyzed via quantitative RT-PCR. Day 56 (+DAPT) represents the results of culture conducted in the medium for Step 6 supplemented with 10 μM DAPT from Day 42 (i.e., upon completion of Step 5). The measured values indicate the ratio of the cell expression levels to the amount of β-actin (AB) corrected with the expression levels in the human fetal trachea (F-trachea, 29-weeks pregnant, BioChain Institute).

## C[C@H](NC(=O)Cc1cc(F)cc(F)c1)C(=O)N[C@H](C(=O)OC(C)(C)C)c1ccccc1 [DAPT, N-[2S-(3,5-difluorophenyl)acetyl]-L-alanyl-2-phenyl-1,1-dimethylethyl ester-glycine]
  differentiation into ciliated airway epithelial cells (expression of FOXJ1, DNAHS, SNTN by qRT-PCR): further accelerated
